Patent publication US10487045B2, “Adamantane derivative and use thereof” (TOHOKU UNIVERSITY, priority 2016, dated 2019)

Key:
Type in all cases: in vivo
APP23 mice [1] = assay: Y-maze method in Alzheimer's disease model mice; settings: APP23 mice 12 months old, 1 mg/kg orally once a day for two months
Method: To Alzheimer's disease model mice (APP23 mice, Sturchler-Pierrat et al., Proc. Natl. Acad. Sci. U.S.A. 1997, 94, 13287-13292)(12 months old), TP-014 (1 mg/kg) was orally administered once a day for two months (chronic treatment). […] FIGS. 4a-d show the results of behavior analysis. FIG. 4a and FIG. 4b show attentional function analyzed on WT mice (C57BL/6J, Japan SLC) and APP23 mice (n=5 per group) by an ordinary Y-maze method. […] The Y-maze method is a method of allowing mice to freely walk on three arms for 8 minutes. The arms will be provisionally designated as A, B, C, respectively. A mouse positioned on A will move to B or C (arm). […] The arms to which a mouse moved are recorded in chronological order and the number of times a mouse moves to each of the arms within a predetermined time is counted and determined as “total arm entries”. Of them, the number of the right-answer cases (the case where a mouse consecutively chooses three different arms) was counted and determined as the number of alternating behaviors (“No. of alternation”). The ratio of “No. of alternation” to the number obtained by subtracting 2 from the “total arm entries” is expressed as alternation (%) and used as the normal alternate behavior index (spatial working memory correct answer ratio). […]

CaMKIV defective mice = assay: Tail-suspension and forced swim methods in CaMKIV defective mice
Method: (§1) OBX mice were originally established as depression model mice although a deterioration of cognitive function was observed. Depression was analyzed by a tail-suspension method (a) and a forced swim method (b). The tail-suspension method is a method of pinching the tail of a mouse and hanging the mouse upside down. If the mouse hung has depression, immobility time is long. Since a normal mouse moves even if it is hung, the immobility time is short. In the forced swim method, a mouse is forced to swim in water in a beaker. A mouse having depression neither swims nor moves (just floating). Thus the immobility time is measured. Immobility time was long in OBX mice both in the tail-suspension method (a) and the forced swim method (b). The immobility time of a TP-014 chronic administration group (2 weeks, in the same administration method as that previously mentioned) was improved.
CaMKIV induced by Kir6.1 channel was analyzed by using CaMKIV defective mice (n=5, per group*) in the same manner as in FIG. 12. Acceleration of depression-like symptom was observed also in the CaMKIV defective mice. […] TP-014 had no effect on CaMKIV depression-like symptom (increase of immobility time). […] CaMKIV defective mice were obtained from professor, Hiroyuki Sakagami, Kitasato University School of Medicine (Takao K et al., PLoS One 2010, 5, e9460).

[2] = test system: olfactory bulbectomized mice (OBX mice); assay: Cognitive function tests (Y-maze, new object recognition, fear conditioning, LTP) in olfactory bulbectomized mice; settings: chronic administration (2 weeks)
OBX mice = assay: Depression-like symptom: tail-suspension method and forced swim method in OBX mice; settings: chronic administration 2 weeks
Method: as §1

APP23 mice [3] = assay: Aβ aggregation in brain slices, staining with 6E10 and thioflavin; settings: APP23 mice (14 months old), chronic treatment, brain slice sections
Description: The hypothesis that amyloid-β (Aβ) is a cause of Alzheimer's disease has now still important. AP aggregation, which occurs in APP23 mice (14 months old) was confirmed by immunostaining. The brains of a WT (control mouse) and APP23 mouse were cut into slice sections of 50 micrometers in thickness. The slice sections were stained with 6E10 (Aβ antibody, manufactured by Abeam) and thioflavin. The conditions other than the above were the same as in the ordinary immunostaining method. […] In contrast, aggregation was not virtually observed in the hippocampus (CA1). Aβ aggregation was inhibited by TP-014 chronic treatment.

APP23 mice [4] = assay: Fear conditioning test in Alzheimer's disease model mice; settings: APP23 mice treated for two months
Description: The fear conditioning test method is an analysis taking an advantage of mouse's preposition in favor of a dark place rather than a bright place. Day 1, a mouse is placed in a bright place. Since a mouse is fond of a dark place, the mouse enters a dark place (dark box). When an electrical stimulation is given to the mouse at this time, the mouse is surprised and returns to the bright place and never enters the dark place. Day 2, the mouse is placed in the bright place (the same place as on Day 1), and then, whether the mouse enters a dark place or not is observed for 5 minutes. If the mouse enters the dark place right away, it is determined that fear memory of the mouse declined. “Latency” is a time period (seconds) until the mouse placed in a bright place enters the dark plate (darkroom) on Day 2.

[5] = test system: Kir6.2 channel deficient mice; assay: Cognitive function tests and LTP in Kir6.2 channel deficient mice; settings: chronic treatment (two months)
Description: To confirm that TP-014 action is Kir6.2 channel inhibitory action, the action site of TP-014 was identified by the same behavioral experiment as in FIG. 4 (FIG. 8a and FIG. 8b: Y-maze test, FIG. 8c: new object recognition test method, FIG. 8d: fear conditioning test method, FIG. 8e to FIG. 8g: LTP improvement evaluation, n=5 per group) using Kir6.2 channel deficient mice. It was confirmed that cognitive dysfunction is induced in Kir6.2 defective mice. […] It was also shown that memory disturbance and LTP attenuation of Kir6.2 defective mice are not improved by TP-014 chronic treatment (two months). […] The analytical methods are the same as in Test Examples 4 to 7. Note that, Kir6.2 defective mice were obtained from Professor Susumu Seino, School of Medicine of Kobe University (Miki T et al., Proc. Natl. Acad. Sci. U.S.A. 1998, 95, 10402-10406).

Kir6.2 defective mice = assay: Immunoblotting of hippocampus for CaMKII activation in Kir6.2 defective mice; settings: chronic treatment
Method: Activation of CaMKII was investigated in the same manner as in FIGS. 4 to 7. In addition, GluA1 (Ser-831), which is known as a molecule activated by activation of CaMKII, was investigated. Hippocampal slices were suspended in an SDS sample buffer to prepare a suspension, which was subjected to immunoblotting. In this way, the intracellular mechanism of cognitive dysfunction in Kir6.2 defective mice was analyzed. The results are shown in FIG. 9 (FIG. 9a: band images by immunoblotting, FIG. 9b: quantification results of signal intensities of bands). In the hippocampus of Kir6.2 defective mice, activation of CaMKII was accelerated. Even in the case of chronic treatment with TP-014, no influence was observed.

## O=C(N[C@@H](c1ccccc1)[C@H]1[C@H]2C[C@@H]3C[C@](Cl)(C2)C[C@@]1(OC(=O)C(F)(F)F)C3)C(F)(F)F [TP-014, (1S,2R,3S,5S,7S)-5-chloro-2-((R)-phenyl(2,2,2-trifluoroacetamido)methyl)adamantan-1-yl 2,2,2-trifluoroacetate]
APP23 mice [1]
  attentional function (alternation, Y-maze): significant attentional function improvement effect
CaMKIV defective mice
  depression-like symptom (increase of immobility time) in CaMKIV defective mice: no effect
[2]
  cognitive dysfunction of OBX mice: significantly improved
OBX mice
  immobility time (tail-suspension method and forced swim method): improved
APP23 mice [3]
  Aβ aggregation: inhibited
APP23 mice [4]
  fear memory (latency, fear conditioning test): improvement effect
[5]
  memory disturbance and LTP attenuation of Kir6.2 defective mice: not improved
Kir6.2 defective mice
  activation of CaMKII in hippocampus of Kir6.2 defective mice: no influence
